Publication PMC8279857, “In Vitro and In Silico Evaluation for the Inhibitory Action of O. basilicum Methanol Extract on α-Glucosidase and α-Amylase” (Evidence-based Complementary and Alternative Medicine : eCAM, 2021)

Target: T1, intestinal α-glucosidase
T1 construct: called intestinal; pNPG assay after Kim et al; 5KZW (docking only) is not the assayed enzyme
Assay: p-nitrophenol release from pNPG, absorbance […] nm
Format: biochemical
Settings: p-nitrophenyl α-D-glucopyranoside (250 μL of 20 mM), sodium phosphate pH 6.9, 37°C, 10 min preincubation

IC50: 1050 ± 250 µM
SMILES: O=C(O)/C=C/c1ccc(O)c(O)c1 [caffeic acid]
